Source: patent US10285400B2, “Disinfectant composition containing quaternary ammonium compounds” (LONZA, INC., priority 2014, dated 2019)

Assays:
[1] = tested on: Pseudomonas aeruginosa (Pa); experiment: OECD Quantitative Method for Evaluating Bacterial Activity of Microbiocides Used on Hard Non-Porous Surfaces; type: cell-based; details: diluted with 375 ppm hard water, test concentration as in test composition
Source text: (§1) Bardac 2250, containing of 50% didecyldimethylammonium chloride and 10% ethanol from Lonza, was used for the formulations.

[2] = tested on: Staphylococcus aureus (Sa); experiment: as above; type: cell-based; details: diluted with 375 ppm hard water, test concentration as in test composition
Source text: as §1

| Compound | # Log Reduc. 5 min contact Pa [1] | # Log Reduc. 5 min contact Sa [2] |
| --- | --- | --- |
| CCCCCCCCCC[N+](C)(C)CCCCCCCCCC.[Cl-] [Bardac 22, didecyldimethylammonium chloride] | ineffective | ineffective |
| OO [Sample 1, hydrogen peroxide] | 1.6 Log | 0.3 Log |
| OO [Sample 2, hydrogen peroxide] | 1.8 Log | 3.2 Log |
| CCCCCCCCCC[N+](C)(C)CCCCCCCCCC.[Cl-] [Sample 3, didecyldimethylammonium chloride] | 3.3 Log | – |
| OO [hydrogen peroxide] | ineffective | ineffective |
